Results on six compounds are retold here after ChEMBL document CHEMBL5252577, “Amphiphilic Polyamine α-Synuclein Aggregation Inhibitors from the Sponge Aaptos lobata” (J Nat Prod, 2023).

Structures are written as SMILES. Values after ≈ are worked out from the molar mass of the structure shown.

Data set [1] in a line: Cytotoxicity against human WPMY-1 cells assessed as reduction in cell viability measured for 48 hrs by resazurin dye based assay. In kind it is toxicity. A general note: Alamar Blue is a resazurin reagent that responds to reducing activity.
Data set [2] relates to Staphylococcus aureus. As to the kind of experiment: Antibacterial activity against methicillin-resistant Staphylococcus aureus ATCC 43300 assessed as bacterial growth inhibition resazurin dye based microplate analysis. In kind it is functional.
The subject of another data set is Pseudomonas aeruginosa. As to the kind of experiment: Antibacterial activity against Pseudomonas aeruginosa ATCC 27853 assessed as bacterial growth inhibition resazurin dye based microplate analysis. In kind it is functional.
The subject of data set [3] is Staphylococcus aureus. As to the kind of experiment: Antibacterial activity against methicillin-sensitive Staphylococcus aureus ATCC 25923 assessed as bacterial growth inhibition resazurin dye based microplate analysis. In kind it is functional.
The subject of another data set is PC-3. As to the kind of experiment: Cytotoxicity against human PC-3 cells assessed as reduction in cell viability measured for 48 hrs by resazurin dye based assay. The settings on record: PC-3, 48 h. In kind it is functional.

With `CCCCCCCCCC(=O)N(C)CCCNCCCNCCCNCCCCNCCCNCCCNCCCN(C)C(=O)CCCCCCCC(C)C`, in data set [1], the half-inhibitory concentration (IC50) at 48 h was 4.1 µM. Further, the MIC90 in the data set on Staphylococcus aureus [2] worked out at 32 µg/mL (≈ 41 µM); in the data set on Pseudomonas aeruginosa, 64 µg/mL (≈ 81.9 µM); with Staphylococcus aureus [3], 32 µg/mL (≈ 41 µM). The half-inhibitory concentration (IC50) in the data set on PC-3 worked out at 4.1 µM.

Consider `CCCCCCCCCC(=O)N(C)CCCNCCCNCCCNCCCCNCCCNCCCNCCCN(C)C(=O)CCCCCCC(C)C`, for which the IC50 at 48 h in data set [1] is 4.3 µM. Besides, the values for the MIC90 in the data set with Staphylococcus aureus [2], in the data set with Pseudomonas aeruginosa and in the data set on Staphylococcus aureus [3] were 16 µg/mL (≈ 20.9 µM), 32 µg/mL (≈ 41.7 µM) and 8 µg/mL (≈ 10.4 µM), respectively. For the same compound, the IC50 in the data set with PC-3 stood at 3.4 µM.

Consider `COc1cccc2c1C(=O)c1c(O)c3c(c(O)c1C2=O)C[C@@](O)(C(=O)CO)C[C@@H]3O[C@H]1C[C@H](N)[C@H](O)[C@H](C)O1` [DOXORUBICIN], for which the IC50 at 48 h in data set [1] came out at 0.7 µM. For the same compound, the IC50 with PC-3 turned out to be 0.6 µM.

As for `CC[C@H]1OC(=O)[C@H](C)[C@@H](O[C@H]2C[C@@](C)(OC)[C@@H](O)[C@H](C)O2)[C@H](C)[C@@H](O[C@@H]2O[C@H](C)C[C@H](N(C)C)[C@H]2O)[C@](C)(O)C[C@@H](C)C(=O)[C@H](C)[C@@H](O)[C@]1(C)O` [ERYTHROMYCIN], the MIC90 with Staphylococcus aureus [3] was determined as 2 µg/mL (≈ 2.73 µM).

Turning to `CC(=O)O[C@H]1C[C@@]2(C)[C@@H](C[C@@H](O)[C@H]3[C@@]4(C)CC[C@@H](O)[C@@H](C)[C@@H]4CC[C@@]32C)/C1=C(\CCC=C(C)C)C(=O)O` [FUSIDIC ACID], in the data set with Staphylococcus aureus [2], the MIC90 was found to be 0.25 µg/mL (≈ 0.484 µM).

As for `NC[C@H]1O[C@H](O[C@H]2[C@H](O)[C@@H](O[C@H]3O[C@H](CO)[C@@H](O)[C@H](N)[C@H]3O)[C@H](N)C[C@@H]2N)[C@H](N)C[C@@H]1O` [TOBRAMYCIN], the MIC90 with Pseudomonas aeruginosa amounted to 1 µg/mL (≈ 2.14 µM).

By IC50 is commonly meant the concentration at which inhibition is half-maximal. In general, MIC90 refers to an inhibitory concentration at the 90% level, which refers to growth in some studies and to a panel of isolates in others.
